Experimental data as given in PubChem BioAssay (NCI).
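Values below derive from 48-hour exposures of cells grown in 96-well plates, with endpoints linearly interpolated between the two concentrations bracketing the appropriate inhibition level. The concentration for 50% growth inhibition is given as GI50. TGI: concentration producing complete growth inhibition.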

What was measured:
Assay in all cases: DTP human tumour cell line panel, 48 h
CCRF-CEM leukemia = system: CCRF-CEM leukemia
HCC-2998 colon = system: HCC-2998 colon
SW-620 colon = system: SW-620 colon
T-47D breast = system: T-47D breast
UACC-257 melanoma = system: UACC-257 melanoma
DU-145 prostate = system: DU-145 prostate
SK-MEL-2 melanoma = system: SK-MEL-2 melanoma
SK-MEL-5 melanoma = system: SK-MEL-5 melanoma
M14 melanoma = system: M14 melanoma
MALME-3M melanoma = system: MALME-3M melanoma
PC-3 prostate = system: PC-3 prostate
HOP-92 NSCLC = system: HOP-92 NSCLC
MCF7 breast = system: MCF7 breast
TK-10 renal = system: TK-10 renal
RXF 393 renal = system: RXF 393 renal
UO-31 renal = system: UO-31 renal
SF-295 CNS = system: SF-295 CNS
RPMI-8226 leukemia = system: RPMI-8226 leukemia
A498 renal = system: A498 renal
SN12C renal = system: SN12C renal
OVCAR-5 ovarian = system: OVCAR-5 ovarian
SK-MEL-28 melanoma = system: SK-MEL-28 melanoma
EKVX NSCLC = system: EKVX NSCLC
ACHN renal = system: ACHN renal
SNB-19 CNS = system: SNB-19 CNS
HS 578T breast = system: HS 578T breast
HCT-15 colon = system: HCT-15 colon
CAKI-1 renal = system: CAKI-1 renal
HCT-116 colon = system: HCT-116 colon
NCI-H522 lung = system: NCI-H522 lung
SF-268 CNS = system: SF-268 CNS
MOLT-4 leukemia = system: MOLT-4 leukemia
OVCAR-3 ovarian = system: OVCAR-3 ovarian
SF-539 CNS = system: SF-539 CNS
HL-60(TB) leukemia = system: HL-60(TB) leukemia
LOX IMVI melanoma = system: LOX IMVI melanoma
SR leukemia = system: SR leukemia
SNB-75 CNS = system: SNB-75 CNS
K-562 leukemia = system: K-562 leukemia
COLO 205 colon = system: COLO 205 colon
U251 CNS = system: U251 CNS
MDA-MB-231 breast = system: MDA-MB-231 breast
OVCAR-8 ovarian = system: OVCAR-8 ovarian
HOP-62 NSCLC = system: HOP-62 NSCLC
NCI-H23 lung = system: NCI-H23 lung
786-0 renal = system: 786-0 renal
NCI-H460 lung = system: NCI-H460 lung
HT29 colon = system: HT29 colon
OVCAR-4 ovarian = system: OVCAR-4 ovarian
IGROV1 ovarian = system: IGROV1 ovarian
BT-549 breast = system: BT-549 breast
UACC-62 melanoma = system: UACC-62 melanoma
KM12 colon = system: KM12 colon
A549 NSCLC = system: A549 NSCLC
SK-OV-3 ovarian = system: SK-OV-3 ovarian
NCI/ADR-RES ovarian = system: NCI/ADR-RES ovarian

For `COc1ccc2c(c1OC)C(=O)OC2C1c2c(c(N)c3c(c2OC)OCO3)CCN1C` (configuration not stated), the GI50 (CCRF-CEM leukemia) was 2.63 µM, the TGI (CCRF-CEM leukemia) was 8.44 µM and the GI50 (HCC-2998 colon) was 6.86 µM. The TGI (HCC-2998 colon) was 28.2 µM, the GI50 (SW-620 colon) was 3.26 µM and the TGI (SW-620 colon) was > 100 µM. The GI50 (T-47D breast) was 2.63 µM, the TGI (T-47D breast) was 19.6 µM and the GI50 (UACC-257 melanoma) was 27.3 µM. For the same compound, the TGI (UACC-257 melanoma) was > 100 µM, the GI50 (DU-145 prostate) was 2.8 µM and the TGI (DU-145 prostate) was 12 µM. The GI50 (SK-MEL-2 melanoma) was 3.17 µM, the TGI (SK-MEL-2 melanoma) was 28.2 µM and the GI50 (SK-MEL-5 melanoma) was 3.03 µM. It also gave a TGI (SK-MEL-5 melanoma) of 13.2 µM, a GI50 (M14 melanoma) of 1.86 µM and a TGI (M14 melanoma) of 4.41 µM. The GI50 (MALME-3M melanoma) was 6.51 µM, the TGI (MALME-3M melanoma) was > 100 µM and the GI50 (PC-3 prostate) was 3.42 µM. For the same compound, the TGI (PC-3 prostate) was > 100 µM, the GI50 (HOP-92 NSCLC) was 12.2 µM and the TGI (HOP-92 NSCLC) was 59.3 µM. The GI50 (MCF7 breast) was 3.11 µM, the TGI (MCF7 breast) was 16.1 µM and the GI50 (TK-10 renal) was 6.57 µM. For the same compound, the TGI (TK-10 renal) was > 100 µM, the GI50 (RXF 393 renal) was 4.25 µM and the TGI (RXF 393 renal) was > 100 µM. The GI50 (UO-31 renal) was 5.28 µM, the TGI (UO-31 renal) was 92.8 µM and the GI50 (SF-295 CNS) was 5.59 µM. The TGI (SF-295 CNS) was 61.8 µM, the GI50 (RPMI-8226 leukemia) was 3.04 µM and the TGI (RPMI-8226 leukemia) was 12.2 µM. The GI50 (A498 renal) was 2.44 µM, the TGI (A498 renal) was 13.3 µM and the GI50 (SN12C renal) was 4.46 µM. It also gave a TGI (SN12C renal) of 21.9 µM, a GI50 (OVCAR-5 ovarian) of 9.35 µM and a TGI (OVCAR-5 ovarian) of 38.8 µM. For the same compound, the GI50 (SK-MEL-28 melanoma) was 8.71 µM, the TGI (SK-MEL-28 melanoma) was > 100 µM and the GI50 (EKVX NSCLC) was 5.18 µM. For the same compound, the TGI (EKVX NSCLC) was > 100 µM, the GI50 (ACHN renal) was 6.75 µM and the TGI (ACHN renal) was > 100 µM. The GI50 (SNB-19 CNS) was 2.7 µM, the TGI (SNB-19 CNS) was 9.25 µM and the GI50 (HS 578T breast) was 2.75 µM. It also gave a TGI (HS 578T breast) of 9.39 µM, a GI50 (HCT-15 colon) of 2.64 µM and a TGI (HCT-15 colon) of 8.38 µM. For the same compound, the GI50 (CAKI-1 renal) was 3.81 µM, the TGI (CAKI-1 renal) was > 100 µM and the GI50 (HCT-116 colon) was 3.19 µM. For the same compound, the TGI (HCT-116 colon) was 14.6 µM, the GI50 (NCI-H522 lung) was 2.07 µM and the TGI (NCI-H522 lung) was 5.3 µM. For the same compound, the GI50 (SF-268 CNS) was 4.57 µM, the TGI (SF-268 CNS) was 23 µM and the GI50 (MOLT-4 leukemia) was 4.96 µM. For the same compound, the TGI (MOLT-4 leukemia) was > 100 µM, the GI50 (OVCAR-3 ovarian) was 4.01 µM and the TGI (OVCAR-3 ovarian) was 34.6 µM. The GI50 (SF-539 CNS) was 2.11 µM, the TGI (SF-539 CNS) was 5.53 µM and the GI50 (HL-60(TB) leukemia) was 4.02 µM. The TGI (HL-60(TB) leukemia) was 26.4 µM, the GI50 (LOX IMVI melanoma) was 4.8 µM and the TGI (LOX IMVI melanoma) was 24 µM. It also gave a GI50 (SR leukemia) of 3.18 µM, a TGI (SR leukemia) of 29.2 µM and a GI50 (SNB-75 CNS) of 2.83 µM. The TGI (SNB-75 CNS) was 11.9 µM, the GI50 (K-562 leukemia) was 4.43 µM and the TGI (K-562 leukemia) was > 100 µM. It also gave a GI50 (COLO 205 colon) of 5.6 µM, a TGI (COLO 205 colon) of 26 µM and a GI50 (U251 CNS) of 3.94 µM. For the same compound, the TGI (U251 CNS) was > 100 µM, the GI50 (MDA-MB-231 breast) was 3.15 µM and the TGI (MDA-MB-231 breast) was 20.7 µM. The GI50 (OVCAR-8 ovarian) was 3.94 µM, the TGI (OVCAR-8 ovarian) was 35.2 µM and the GI50 (HOP-62 NSCLC) was 5.15 µM. For the same compound, the TGI (HOP-62 NSCLC) was > 100 µM, the GI50 (NCI-H23 lung) was 4.74 µM and the TGI (NCI-H23 lung) was > 100 µM. For the same compound, the GI50 (786-0 renal) was 7.51 µM, the TGI (786-0 renal) was > 100 µM and the GI50 (NCI-H460 lung) was 3.37 µM. For the same compound, the TGI (NCI-H460 lung) was 11.6 µM, the GI50 (HT29 colon) was 3.96 µM and the TGI (HT29 colon) was 52.8 µM. The GI50 (OVCAR-4 ovarian) was 5.33 µM, the TGI (OVCAR-4 ovarian) was > 100 µM and the GI50 (IGROV1 ovarian) was 1.68 µM. For the same compound, the TGI (IGROV1 ovarian) was 6.68 µM, the GI50 (BT-549 breast) was 2.32 µM and the TGI (BT-549 breast) was 9.12 µM. The GI50 (UACC-62 melanoma) was 4.04 µM, the TGI (UACC-62 melanoma) was > 100 µM and the GI50 (KM12 colon) was 3.33 µM. The TGI (KM12 colon) was 62.7 µM, the GI50 (A549 NSCLC) was 6.23 µM and the TGI (A549 NSCLC) was > 100 µM. It also gave a GI50 (SK-OV-3 ovarian) of 3.23 µM, a TGI (SK-OV-3 ovarian) of 23.4 µM and a GI50 (NCI/ADR-RES ovarian) of 1.58 µM. For the same compound, the TGI (NCI/ADR-RES ovarian) was 3.2 µM.
